For data set [1], the system named is Can. tropicalis IAM 4942. Nature of the data set: Minimum inhibitory concentration, broth dilution method. To be noted: Candida tropicalis, IAM4942.
Data set [2] has as its system Staph. aureus FDA 209P. Described as above. As to conditions: Staphylococcus aureus, FDA209P.
Data set [3] has as its system L1210 cells. Nature of the data set: Growth inhibition of cultured L1210 cells. To be noted: Mus musculus, L1210, read-out: % Inhibition, Growth (on Day 2).
In data set [4] the test system is Pr. morganii. Nature of the data set: Minimum inhibitory concentration, broth dilution method. To be noted: Morganella morganii.
Data set [5] relates to Ps. fluoroescens NIHJB-254. The description is as above.
Data set [6] relates to Bac. subtilis ATCC 6633. The data set is described as above. To be noted: Bacillus subtilis, ATCC6633.
Data set [7] relates to Bac. cereus ATCC 9634. The data set is described as above. As to conditions: Bacillus cereus, ATCC9634.
Data set [8] relates to Staph. aureus Smith. Described as above. To be noted: Staphylococcus aureus.
For data set [9], the system named is Bac. megaterium NRRL B-938. The data set is described as above. As to conditions: Priestia megaterium, NRRLB938.
Data set [10] has as its system Mycobact. smegmatis ATCC 607. The description is as above.
Data set [11] deals with Mic. flavus. The description is as above. To be noted: Micrococcus flavus.
Data set [12] relates to Sar. lutea ATCC 9341. Described as above. As to conditions: Micrococcus luteus, ATCC9341.
The subject of data set [13] is solid and ascitic-type mammalian malignant tumors. Nature of the data set: Inhibitory action against solid and ascitic-type mammalian malignant tumors. In kind it is in vivo, mammals. To be noted: solid and ascitic-type mammalian tumors; in words.
Data set [14] concerns Corv. bovis 1810. In words: Minimum inhibitory concentration, broth dilution method. On the technique in general: Broth dilution looks for growth in wells or tubes with falling amounts of substance.
The test system of data set [15] is Can. albicans IAM 4905. The description is as above. As to conditions: Candida albicans, IAM4905.
Data set [16] concerns P388 leukemia. In words: Inhibition of growth of P388 leukemia in mice. Type of data set: in vivo. As to conditions: P388 leukemia in mice; in words.
Data set [17] in a line: Acute toxicity, single intraperitoneal injection. To be noted: mouse, in vivo, ip; single i.p. injection, dd mice; read-out: LD50, intraperitoneal administration.

≈ marks a conversion by molar mass, not a printed value.

For orientation: MIC means the lowest concentration found to suppress growth. High values mean weaker potency, low ones greater potency. As a reminder, the inhibition is the drop in the measured response relative to a control, in per cent.

As to `CC[C@@]1(O)C[C@H](O[C@H]2C[C@H](N(C)C)[C@H](O[C@H]3C[C@H](O)[C@H](O)[C@H](C)O3)[C@H](C)O2)c2c(cc3c(c2O)C(=O)c2c(O)cccc2C3=O)[C@H]1C(=O)OC` [MA 144-S1, 2-deoxy-L-fucosyl-L-rhodosaminyl-aklavinone], the minimum inhibitory concentration (MIC) in [1] is greater than 100 µg/mL; in data set [2], 6.25 µg/mL (≈ 8.93 µM); in data set [4], greater than 100 µg/mL; in data set [5], greater than 100 µg/mL; in [6], 3.1 µg/mL (≈ 4.43 µM); in data set [7], 1.56 µg/mL (≈ 2.23 µM). For the same compound, the MIC in [8] is 3.1 µg/mL (≈ 4.43 µM); in [9], 3.1 µg/mL (≈ 4.43 µM); in data set [10] it was greater than 100 µg/mL; in data set [11] it was 1.56 µg/mL (≈ 2.23 µM); in data set [12], 1.56 µg/mL (≈ 2.23 µM); in data set [14], 0.78 µg/mL (≈ 1.11 µM). Further, the minimal inhibitory concentration (MIC) in data set [15] was greater than 100 µg/mL. In addition, the inhibition at 0.1 µg/mL in [3] came out at 86%. The “inhibitory action against malignant tumors” value in data set [13] is on record as “marked inhibitory action”. For the same compound, the “inhibiting the growth of P388 leukemia” value in [16] is on record as “effective in inhibiting the growth of malignant tumors”. In [17], the LD50 stood at 24.4 mg/kg.

The values above are taken from patent publication US4209588A, “Process for producing new antitumor anthracycline antibiotics” (Zaidan Hojin Biseibutsu Kagaku Kenkyu Kai, priority 1976, dated 1980).
